Earlier results as cited in patent US5583105A, “Oral pharmaceutical preparation” (Biogal Gyogyszerguar Rt, priority 1994, dated 1996).

Details: in water

CCOC(=O)CC(O)(CC(=O)OCC)C(=O)OCC [triethylcitrate, triethyl-citrate]
concentration of aqueous solution formed: 6.5%
